Experimental data as given in patent US11311504B2 (priority 2012, dated 2022).

Test system: rat
Settings: in vivo

## CC(=O)Nc1ccc(O)cc1 [Paracetamol]
  timepoint of peak effect: 120 min p. appl.
